Results on 71 compounds are retold here after doi:10.1101/2021.04.29.441652v1 (biorxiv, 2021).

The target in this assay is human σ2 receptor (TMEM97) (Homo sapiens, UniProt Q5BJF2). The experiment in a line: biochemical. The format is Expi293 membranes. Conditions: read-out: % of control remaining.
human σ2 receptor (TMEM97), sequence (Q5BJF2 whole entry): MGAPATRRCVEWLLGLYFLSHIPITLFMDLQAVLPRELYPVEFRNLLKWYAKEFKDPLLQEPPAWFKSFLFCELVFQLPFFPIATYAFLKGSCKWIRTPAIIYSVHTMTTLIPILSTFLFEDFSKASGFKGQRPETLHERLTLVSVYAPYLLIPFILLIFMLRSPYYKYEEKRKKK
In the case of `Cc1cc(F)c(CN[C@@H]2CCN(c3ccccc3C(N)=O)C2)c(Cl)c1` [ZINC000656499190], the remaining activity at 1 µM stood at 71.5%.
The result for `OC[C@]1(CNC2=NCCCN2)CCc2ccccc21` [ZINC000656508398] reads 55.9%.
The figure for `C[C@@H](Cc1ccc2c(c1)CCCC2)N[C@H]1CCN(C2CCOCC2)C1=O` [ZINC000657922756] is 1.7%.
The result for `C[C@H](Cn1ncc2ccccc2c1=O)N[C@@H](C)Cc1ccc2c(c1)CCCC2` [ZINC000657934399] reads 13.3%; that for `C[C@H](Cn1cncn1)N[C@@H]1CCN(c2ccccc2C(F)(F)F)C1` [ZINC000657977970], 83.1%.
Turning to `COc1ccc([C@@H](C)N[C@H](CO)C2CCC2)cc1Br` [ZINC000658086473], the remaining activity at 1 µM turned out to be 42.3%.
The figure for `CCOc1cc2c(cc1NC(=O)C[C@@H]1NCc3ccccc31)O[C@@H](C)C2` [ZINC000659267272] is 101%; for `CNC[C@H](C)NC(=O)C(=O)NCc1ccc(N2CCO[C@@H](C)C2)nc1` [ZINC000659691253] it is 82.1%; for `O=C(CN1CC2CC1(c1ccccc1)C2)NC[C@@H]1CCCO1` [ZINC000662335416] it is 122%.
The figure for `CN(CC(=O)Nc1c(Cl)cccc1Cl)C[C@@H]1CC1(C)C` [ZINC000662345330] is 42.3%.
The result for `COc1cc(NC(=O)CC2(N)CC2)cc(OC)c1Br` [ZINC000662800454] reads 106%; that for `O=C(N[C@H]1CCOC2(CCC2)C1)N1CCC(N2CC[C@@H](O)C2)CC1` [ZINC000664479370], 103%; that for `CN(C)Cc1ccc(-c2cscc2CCO)cc1F` [ZINC000665143541], 108%.
Take `O=C(Nc1cnn(CC2CC2)c1)C(=O)N1CCC[C@H]([C@@H]2CCNC2)C1` [ZINC000667676804]: the remaining activity at 1 µM came to 94.4%.
The figure for `Cc1ccccc1-n1cc(CN2CCC[C@@H]([C@H]3CCCCO3)C2)nn1` [ZINC000668631550] is 58.4%.
As for `OC[C@H](N[C@H]1Cc2[nH]c3ccccc3c2C1)C1CCCCC1` [ZINC000669616349], the remaining activity at 1 µM worked out at 56.6%.
The figure for `C[C@@H](NC(=O)C(=O)NCCCN1CCC[C@H](C(N)=O)C1)C1CCC1` [ZINC000671981913] is 106%.
The result for `C[C@H]1[C@H](N2CCCC2)CCN1Cc1cn2cc(Br)ccc2n1` [ZINC000672564445] reads 69.7%; that for `O=C(NCCCC1CC1)C(=O)NC1CCN([C@H]2CCC[C@@H]2O)CC1` [ZINC000673584800], 110%.
The result for `Clc1ccccc1Cn1cc(CN2CCC[C@@H]2c2ccc[nH]2)cn1` [ZINC000676461131] reads 63.8%.
In the case of `c1ccc(-n2cncn2)c(CN2CCC[C@H](N3CCCC3)CC2)c1` [ZINC000678272880], the remaining activity at 1 µM was found to be 55.7%.
The result for `CN1CC[C@H]2CCN(C(=O)C(=O)Nc3cnc4c(c3)COCC4)[C@@H]2C1` [ZINC000679371269] reads 114%; that for `COCCOCc1cccc(NC(=O)NCC2(C)CCN(C)CC2)c1` [ZINC000679555790], 103%; that for `Fc1cc(Br)cnc1N1CCN(CCc2cccs2)CC1` [ZINC000681377109], 114%.
As for `CC[C@@]1(NCC(=O)Nc2ccc(C)cc2Br)CCOC1` [ZINC000683045155], the remaining activity at 1 µM came to 108%.
The result for `Clc1ccccc1Cn1cc(CNc2nc3ccccc3[nH]2)cn1` [ZINC000683721842] reads 99.8%; that for `CCN(CC)c1ncc(CN2CC(C(C)C)C2)s1` [ZINC000684407814], 70.6%; that for `CC(C)C1CN(C[C@@H](O)COC(c2ccccc2)c2ccccc2)C1` [ZINC000684607185], 17.3%.
The figure for `Brc1ccccc1-n1cc(CN2CC[C@@H]3CCC[C@@H]32)nn1` [ZINC000685844120] is 51.3%; for `CCN1CCN(CCNC(=S)N[C@H](C)c2cccs2)CC1` [ZINC000726467110] it is 79.5%.
The result for `O[C@@H](CN1CCN(c2ccc(-c3nn[nH]n3)cc2F)CC1)C1CC1` [ZINC000738383044] reads 118%.
For the compound `O[C@@H](CN1CC[C@@H](CSc2ccccc2)C1)c1c(F)cccc1F` [ZINC000743860012], the remaining activity at 1 µM was 23.7%.
The figure for `CN(C(=O)CCn1cnc2c1c(=O)n(C)c(=O)n2C)c1cn[nH]c1` [ZINC000748395040] is 108%; for `Cc1nn(Cc2ccc(F)cc2)c(Cl)c1CNC[C@@]1(O)CCN(C)C1` [ZINC000762555244] it is 84.1%; for `Cc1ccc2c(c1)CC[C@H]2N[C@@H](CO)Cc1ccccc1` [ZINC000766031584] it is 63.2%.
The figure for `C[C@H](CCN1C(=O)c2ccccc2C1=O)NC[C@@H](O)c1c(F)cccc1F` [ZINC000769519341] is 91.7%; for `O=C(NC1CCCCC1)C(=O)NC1CCN(C[C@H]2CCCO2)CC1` [ZINC000774469834] it is 83.3%; for `COc1ccc([C@H]2CCN(C[C@@H](O)c3ccc(F)cc3Cl)C2)cc1` [ZINC000775588849] it is 39%.
The result for `O=C1NCCC[C@@H]1N1CC[C@@](O)(c2ccc(F)cc2)C1` [ZINC000777733869] reads 108%; that for `O=[N+]([O-])c1cccc([C@H](O)CN2CC(Cc3cccc(C(F)(F)F)c3)C2)c1` [ZINC000792998860], 3.8%.
Turning to `O[C@H](CN[C@@H]1CCc2ccccc2OC1)COc1c(Cl)cccc1Cl` [ZINC000801571276], the remaining activity at 1 µM came out at 37.6%.
For `Cc1ccc(C2=NO[C@@H](CNC(=O)N3CC[C@H](N4CCCC4)C3)C2)cc1C` [ZINC000802379169], the remaining activity at 1 µM was found to be 89.7%.
The result for `O=C(NC[C@@H]1CN2CCC[C@@H]2CO1)C(=O)N[C@@H]1CC[C@H]2CCC[C@@H]2C1` [ZINC000804054066] reads 90%; that for `COc1ccc(C(=O)N2CC[C@H](N3CCCC3)[C@@H]2C)nc1Cl` [ZINC000805335094], 133%.
The figure for `CN1CCN(CCNC(=O)C(=O)NC[C@H]2CCC=CO2)CC1(C)C` [ZINC000805503179] is 105%; for `CC[C@@H](CN1CCCC1)NC(=O)C(=O)NC1COC(C)(C)OC1` [ZINC000806327364] it is 106%.
The figure for `Cc1ccc(N2CCN(C(=O)C(=O)N[C@@H]3CN(C4CC4)C[C@@H]3C)CC2)cc1` [ZINC000809405032] is 99.4%; for `C[C@H](NC(=O)c1ccc2[nH]c(=O)c(=O)[nH]c2c1)[C@H](O)c1ccccc1` [ZINC000813849560] it is 108%.
Regarding `CC(C)(C)OC(=O)N1CCC[C@@](C)(CNC[C@@H](O)c2c(F)cccc2F)C1` [ZINC000819225653], the remaining activity at 1 µM came out at 17.6%.
The figure for `C[C@H]1[C@H](N(C)C)CCN1c1snc(Cl)c1C#N` [ZINC000820594289] is 104%; for `O=C([C@H](O)c1cccc([N+](=O)[O-])c1)N1CC[C@H](N2CCCC2)C1` [ZINC000825615260] it is 104%; for `CS[C@@H]1CCN(C[C@@H](O)c2ccccc2C(F)(F)F)C1` [ZINC000830877226] it is 78.8%.
In the case of `C[C@@H]1CCC[C@H](CCN2CCC([C@H](O)c3ncc[nH]3)CC2)C1` [ZINC000839577413], the remaining activity at 1 µM worked out at 28.7%.
Take `OC[C@@H](CNC[C@H](O)c1ccc(F)c(Br)c1)CC1CCCC1` [ZINC000843092160]: the remaining activity at 1 µM worked out at 16.2%.
For `Fc1ccc(C2OCCO2)c(Cl)c1CNC1CC2(CCC2)C1` [ZINC000846106280], the remaining activity at 1 µM came out at 43.6%.
`CN1CC[C@]2(CCN(C(=O)C(=O)Nc3cccc4nonc34)C2)C1` [ZINC000847525041]: the remaining activity at 1 µM is 59.3%.
The figure for `C[C@H]1CN/C(=N/CCCc2c(Cl)cccc2Cl)N1` [ZINC000849049798] is 8.7%; for `CON(C)CCNC(=O)C(=O)Nc1ccc2c(c1)C(=O)N(C)C2=O` [ZINC000850493342] it is 136%; for `Fc1ccc(NC(=S)NC2CCN([C@H]3CCOC3)CC2)cc1` [ZINC000853031922] it is 115%.
The result for `C[C@H](Nc1nc(N)nc(N)n1)c1ccccc1C(F)(F)F` [ZINC000858362097] reads 142%; that for `Cc1cc(N(C)C)ccc1CNC(=O)C(=O)NC[C@@H]1COCCN1` [ZINC000861751799], 106%; that for `CCC1(N2CCOCC2)CCN(C(=O)C2=NN(C)C(=O)CC2)CC1` [ZINC000863492725], 179%.
On to `CN1CCN(C2CCN(c3nc(N)c4ccccc4n3)CC2)CC1` [ZINC000866213504], for which the remaining activity at 1 µM was 204%.
With `C[C@H]1CCC[C@H](NC(=O)C(=O)N2CCC(N3CCN(C)CC3)CC2)CC1` [ZINC000875242850], the remaining activity at 1 µM is 76.2%.
The result for `O[C@@H](CN1CC[C@@H](c2ccccc2F)C1)CC1(O)CCCCC1` [ZINC000878084395] reads 27.7%.
As for `NC(=O)C1(N2CCCCC2)CCN(CC(=O)NCC2CCC2)CC1` [ZINC000880249690], the remaining activity at 1 µM was 113%.
The figure for `C=CCC1(O)CCN([C@H](C)C(=O)N[C@@H](C)c2ccc(Cl)cc2)CC1` [ZINC000886762228] is 110%; for `Cc1cc(C(=O)CN2CC[C@@H]([C@H]3CCCO3)C2)c(C)n1C1CC1` [ZINC000886836194] it is 24.1%.
The result for `CO[C@@H]1CN(C(=O)NCc2ccnc(N3CCN(C)CC3)c2)CCO1` [ZINC000891830660] reads 116%; that for `CC[C@H](CO)N1CCN(c2cc(Cl)c3cnn(C)c3n2)CC1` [ZINC000892713700], 99.5%.
The result for `Cc1cccc2sc(N3CCN(CCO)[C@H](C)C3)nc12` [ZINC000893277758] reads 95.1%.
